Tested on: beneficial oral bacteria and pathogenic oral bacteria
Experiment: Twenty-four hour biofilm growth, overall prebiotic assessment
Format: cell-based
Excerpt: Substrates that were able to increase the biofilm mass of at least one of the above beneficial bacteria while not or only minimally increasing the biofilm mass of the pathogenic bacteria are considered to be prebiotic compounds.
The increase in biofilm formation of the tested bacteria in response to selected saccharides (D-turanose, D-lactitol, myo-inositol, and N-acetyl-D-mannosamine) was investigated by setting up biofilm growth assays in a nutritionally rich medium (brain heart infusion broth (BHI), Oxoid), over 24 hours. Late exponential growth phase liquid cultures were prepared by transferring the respective bacterium from blood agar plates to BHI and overnight incubation at 37° C. in an anaerobic atmosphere for A. viscosus, V. parvula, P. gingivalis, P. intermedia, T. forsythia, A. naeslundii, and C. sputigena, and in a 5% CO2 environment for S. salivarius, S. sanguinis, S. mitis, A. actinomycetemcomitans, S. mutans, and S. gordonii. Overnight cultures were transferred to BHI and adjusted to a concentration of 1×10^7 CFU/ml by measuring the optical density at 600 nm (OD600) (BioRad SmartSpec 3000). For each strain, 200 μl of the bacterial suspension was added to a 96-well plate containing 20 μl of the respective saccharides. Final concentrations of the saccharides were set to 5, 10, 20 and 25 μmol/ml. […] Additionally, for each bacterium tested, a background control, to correct for background staining, was added. This background control contained the bacterium tested and 0.03 weight % chlorhexidine, as an antiseptic. Plates were incubated as previously described. After 24 hrs the supernatant was removed from the wells of the plates. The wells were washed twice with 1×100 μL PBS (phosphate buffered saline), fixed for 20 minutes with 96% vol. ethanol (96% vol. solution in water) and the biofilm retained at the bottom of the wells was stained with 1 weight % crystal violet (1 weight % solution in water). The bound dye was dissolved with 5% vol. acetic acid (5% vol. solution in water). Quantification of the stained biofilm was performed by measuring the absorbance at 630 nm using a Multiskan Ascent microplate reader (Thermo Scientific).
The experiment was carried out on three different days (thus providing 3 biological replicas) and each day the experiment was carried out in quadruple (thus providing 4 technical replicas) for each combination of bacterium with saccharide and for each control. For each day and for each combination, the average (mean) of the values obtained (as detailed above) for the four technical replicas was calculated to provide a single value for each combination on each day. The values shown in Tables 7a, 7b, 8a, 8b, below, are the average (mean) of the three single values obtained for each combination of bacterium with saccharide. […]

[1] = concentrations of 5, 10, 20 and 25 μmol/ml

| SMILES | prebiotic effects (biofilm growth, threshold value 1.6) [1] | prebiotic effects (biofilm growth, threshold value 1.6) (concentrations of 20 and 25 μmol/ml) |
| --- | --- | --- |
| OC[C@@H](O)[C@@H](O[C@H]1O[C@H](CO)[C@H](O)[C@H](O)[C@H]1O)[C@H](O)[C@@H](O)CO [D-Lactitol, 4-O-α-D-galactopyranosyl-D-glucitol] | exhibited prebiotic effects |  |
| OC[C@H]1O[C@@](O)(CO)[C@@H](O[C@H]2O[C@H](CO)[C@@H](O)[C@H](O)[C@H]2O)[C@@H]1O [D-Turanose, α-D-glucopyranosyl-(1→3)-α-D-fructofuranose] |  | exhibited prebiotic effects |
| O[C@H]1[C@H](O)[C@@H](O)[C@H](O)[C@@H](O)[C@H]1O [Myo-Inositol, (1R,2R,3S,4S,5R,6S)-cyclohexane-1,2,3,4,5,6-hexol] | exhibited prebiotic effects |  |
| CC(=O)N[C@H](C=O)[C@@H](O)[C@H](O)[C@H](O)CO [N-acetyl-D-mannosamine, 2-acetamido-2-deoxy-D-mannose] | exhibited prebiotic effects |  |
